{"source": "patent US20060094676A1", "about": "“Compositions and methods for treating cancer using compositions comprising an inhibitor of endothelin receptor activity” (priority 2004, published 2006)", "key": {"caspase 3": {"test_system": "caspase 3", "assay": "Western blot for caspase 3 activation", "format": "cell-based", "details": "BQ788-treated melanoma cells; data not shown", "source_text": "Down-regulation of BCL2-A1 results in caspase 9 activation but not caspase 3 or 8 cleavage (Duriez, et al., A1 functions at the mitochondria to delay endothelial apoptosis in response to tumor necrosis factor, J. Biol. Chem., 275:18099-18107 (2000); Pagliari, et al., Macrophages require constitutive NF-kappaB activation to maintain A1 expression and mitochondrial homeostasis, Mol. Cell Biol., 20:8855-8865 (2000)). […] Whether caspase 6 activation occurs via reduction in BCL-2A1 expression or by alternative pathways remains to be determined."}, "BCL-2A1": {"test_system": "BCL-2A1", "assay": "Real-time RT-PCR of BCL-2A1 transcripts", "format": "cell-based, human", "details": "BQ788 3 days", "protocol": "(§1) Equal amounts of RNA from cells that were treated with BQ788 for 3 days were subjected to real-time RT-PCR analysis for the detection of BCL-2A1 (A) and ADP ribosyltransferase 3 (B) transcripts. Total amounts are represented in A while relative (to control) values are shown in B. Differences in expression levels are shown as x fold decrease and are statistically significant (p<0.05) unless a column in marked as non significant (N.S.). Lysates of BQ788 treated cells and controls were subjected to an apoptosis ELISA detection test (C). SK-MEL-28 cells were cultured with pan caspase inhibitor (D) or with caspase 6 inhibitor (E) with or without BQ788 for 2.5 days. […] SK-MEL-28 cells were cultured for 3 days in the presence of BQ788 and assayed for caspase 6 activity (F). The difference between the columns is statistically significant (p<0.05).\nRNA was prepared from the different cell lines in different culture conditions using SV total RNA isolation kit (Promega) according to the manufacturer's protocol. For each sample RNA concentration was determined using the total RNA nano procedure of an Agilent bioanalyzer. A stock of SK-MEL-28 RNA aliquots was prepared containing 10, 20, 50, 100, 200, 500 and 1000 ng/12 μl for use as a standard curve and kept in −80° C. For the experimental unknown samples, a stock of 100 ng/12 μl RNA aliquots from each cell line and condition was prepared and stored at −80° C. For each real-time experiment one series of standard curve and unknown experimental series of aliquots was put on ice for use. Complementary DNA was prepared by adding to each tube 0.5 μl of random hexamers (Promega) and 1 μl of 10 mM dNTP mix (Promega) and incubating at 65° C. for 5 min. 4 μl of 5× M-MLV buffer (Promega), 1 μl of the RNase inhibitor RNasin (Promega) and 1 μl of M-MLV RT RNase H (Promega) were then added and the solution was incubated at 42° C. for 50 min followed by 15 min at 70° C. For real time reactions 15 μl of each cDNA sample were transferred to 3 wells in a 386 well plate. To each well we added 10 μl of TaqMan universal PCR master mix (Applied Biosystems), 1 μl of primers+probe mix (Assays-on-Demand from Applied Biosystems: EDNRB Hs00240747, BCL-2A1 Hs00187845, PARP-3 Hs00154151, VEGF Hs00173626, HIF-1α Hs00153153 and Gravin Hs00374507) and 4 μl of nuclease free water (Promega). […] A standard curve of Ct versus RNA quantity was established and accordingly the Ct in the unknown samples was correlated to quantity of transcript.\nIf the observed reduction in BCL-2A1 and PARP-3 expression is implicated in ETRB blockade-dependent cell death, one would expect the more resistant cell lines to display less reduction in BCL-2A1 and PARP-3 levels. To test this possibility and to validate our microarray results, we used quantitative real-time PCR."}, "kidney cells": {"test_system": "kidney cells", "assay": "MTS assay, number of viable cells", "format": "cell-based", "details": "high concentrations of BQ788"}, "caspase 6": {"test_system": "caspase 6", "assay": "Mch2/Caspase-6 colorimetric protease assay on cell lysates", "format": "cell-based, human", "details": "SK-MEL-28; after 3 days of treatment with BQ788", "protocol": "as §1, with “The difference between the columns is statistically significant (p<0.05).” left out\nCaspase 3 inhibitor I (inhibits caspases 3, 6, 7, 8 & 10), cell-permeable (Calbiochem) and Caspase 6 inhibitor II, Cell-Permeable (Calbiochem) were dissolved in DMSO. […] Cell viability was measured using MTS solution in parallel experiments at 5 different time points. Caspase 6 activity was measured using Mch2/Caspase-6 Colorimetric Protease Assay Kit according to the manufacturer's instructions. […] Caspase 6 activity was measured in 4 samples containing equal amounts of protein from each condition by spectrophotometric detection of a chromophore following its release from the labeled caspase 6 substrate VEID. […]"}, "PARP-3": {"test_system": "PARP-3", "assay": "Real-time RT-PCR of PARP-3 transcripts", "format": "cell-based, human", "details": "primary melanoma cells; BQ788 treatment", "protocol": "as §1\nRNA was prepared from the different cell lines in different culture conditions using SV total RNA isolation kit (Promega) according to the manufacturer's protocol. For each sample RNA concentration was determined using the total RNA nano procedure of an Agilent bioanalyzer. […] A standard curve of Ct versus RNA quantity was established and accordingly the Ct in the unknown samples was correlated to quantity of transcript. […]"}}, "data": [{"molecule": "CCCC[C@@H](NC(=O)[C@@H](Cc1cn(C(=O)OC)c2ccccc12)NC(=O)[C@H](CC(C)(C)C)NC(=O)N1[C@H](C)CCC[C@@H]1C)C(=O)O", "note": "[BQ788, N-cis-2,6-dimethylpiperidinocarbonyl-L-γ-methylleucyl-D-1-methoxycarbonyltrptophanyl-D-norleucine]", "values": [{"measurement": "caspase 3 activation", "setting": "caspase 3", "result": "did not reveal caspase 3 activation"}, {"measurement": "decrease in BCL-2A1 levels", "setting": "BCL-2A1; Cut-met line", "result": 1.8, "unit": "fold"}, {"measurement": "decrease in BCL-2A1 levels", "setting": "BCL-2A1; LN-met", "result": 2.9, "unit": "fold"}, {"measurement": "decrease in BCL-2A1 levels", "setting": "BCL-2A1; SK-MEL-28", "result": 5.7, "unit": "fold"}, {"measurement": "BCL-2A1 expression change", "setting": "BCL-2A1; primary melanoma cells", "result": "did not change"}, {"measurement": "number of kidney cells", "setting": "kidney cells", "result": "not reduced"}, {"measurement": "caspase 6 activation", "setting": "caspase 6", "result": "could be detected"}, {"measurement": "PARP-3 levels", "setting": "PARP-3", "result": "did not show a decrease"}]}]}
